# In the supplement of paper PMC10307832:
# Tests used:
# Experiment in all cases: relative viability (nuclei count vs DMSO), 5 days (fraction); higher = more cells survive
# [1] = compound: CS(=O)(=O)N1CCN(Cc2cc3nc(-c4cccc5[nH]ncc45)nc(N4CCOCC4)c3s2)CC1 [Pictilisib]
# Procedure, shortened: (§1)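 Viability was read as treated-well nuclei divided by vehicle-well nuclei, using the median across plates. Lung cancer cell lines in 1536-well plates were kept overnight at 37 °C, pinned with five √10-spaced library-drug doses, and after 5 days were Hoechst-stained, imaged at 4× and counted in MetaXpress. Plates passed only with control CV below 25% and at least one doubling.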
# [2] = compound: NC1(c2ccc(-c3nc4ccn5c(=O)[nH]nc5c4cc3-c3ccccc3)cc2)CCC1 [MK-2206]
# Procedure, shortened: as §1
# [3] = compound: CS(=O)(=O)N1CCN(Cc2cc3nc(-c4cccc5[nH]ncc45)nc(N4CCOCC4)c3s2)CC1 [Pictilisib] + N=C(N)NC(=N)NCCc1ccccc1 [Phenformin] (partner 250 µM)
# Procedure, shortened: (§2)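 A single step with final 0.05% Triton X-100, 1% formaldehyde and 1 ug/ml Hoechst fixed the cells and stained nuclei 5 days after treatment. Lung cancer cell lines in 1536-well plates had been treated by pin tool the day after seeding with one drug alone or a fixed anchor-drug dose plus five library-drug doses (not always all listed) in √10 steps, and nuclei were counted on 4× images. Relative viability is the ratio of nuclei in treated wells to nuclei in vehicle wells, taken as the median of duplicate plates.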
# [4] = compound: NC1(c2ccc(-c3nc4ccn5c(=O)[nH]nc5c4cc3-c3ccccc3)cc2)CCC1 [MK-2206] + O=C(CCCCCCC(=O)Nc1ccccc1)NO [Vorinostat] (partner 1 µM)
# Procedure, shortened: as §2
Cell Line,relative viability ([1]; 0.02 µM),relative viability ([1]; 0.06325 µM),relative viability ([1]; 0.6325 µM),"relative viability ([1]; 1 µM, anchor plate)",relative viability ([1]; 2 µM),relative viability ([2]; 0.01 µM),relative viability ([2]; 0.03162 µM),relative viability ([2]; 0.3162 µM),relative viability ([2]; 1 µM),relative viability ([3]; first compound 0.02 µM),relative viability ([3]; first compound 0.06325 µM),relative viability ([3]; first compound 0.6325 µM),relative viability ([3]; first compound 2 µM),relative viability ([4]; first compound 0.01 µM),relative viability ([4]; first compound 0.03162 µM),relative viability ([4]; first compound 0.3162 µM),relative viability ([4]; first compound 1 µM)
A549,0.992,0.97,0.731,0.517,0.437,1.02,1.07,0.921,0.877,0.235,0.177,0.155,0.0936,–,–,–,–
HCC-366,0.986,1.02,0.851,0.159,0.448,1.02,1.02,0.978,0.98,0.631,0.702,0.269,0.129,0.341,0.448,0.26,0.254
EKVX,0.911,0.941,0.91,0.433,0.453,1.01,0.952,0.936,0.758,0.228,0.256,0.211,0.178,0.681,0.684,0.648,0.693
NCI-H1993,0.94,0.869,0.639,0.766,0.674,0.907,0.987,0.737,0.618,0.527,0.504,0.626,0.573,0.765,0.962,0.611,0.504
NCI-H522,1,1.05,0.768,–,0.648,0.916,1.01,0.885,0.696,0.749,0.676,0.613,0.603,1.07,1.02,0.828,0.836
NCI-H1703,0.929,0.806,0.408,0.244,0.208,0.985,0.868,0.825,0.784,–,–,–,–,–,–,–,–
NCI-H23,1.01,1.09,0.808,0.525,0.478,0.944,0.909,0.896,0.783,0.84,0.82,0.664,0.523,0.6,0.508,0.569,0.372
HCC-827,1.11,1.05,1.05,0.939,0.866,1.04,1.05,1.05,0.932,0.423,0.419,0.376,0.306,0.791,0.847,0.816,0.323
PC-3 [JPC-3],1.06,1.13,1.1,0.735,0.856,1.02,1.04,1.11,1.07,0.493,0.539,0.487,0.405,0.796,0.691,0.826,0.755
NCI-H1355,0.977,1,0.918,0.461,0.588,0.977,0.997,0.9,0.788,0.493,0.467,0.393,0.248,0.598,0.667,0.541,0.49
NCI-H727,1.04,0.92,0.914,0.39,0.536,0.976,1.01,0.901,0.894,0.564,0.529,0.554,0.38,1.18,1.33,1.25,0.901
IA-LM,0.924,1.03,0.941,0.373,0.476,0.904,0.992,1.02,0.691,–,–,–,–,0.935,1.11,1.02,1.02
NCI-H1975,0.98,0.804,0.605,0.307,0.292,1.06,0.931,0.913,0.728,0.431,0.387,0.25,0.177,0.712,0.63,0.572,0.522
NCI-H460,0.993,1.02,0.933,0.381,0.353,0.997,1.03,1.02,0.921,0.549,0.534,0.266,0.0575,0.677,0.785,0.717,0.599
EPLC-272H,0.988,0.909,0.668,0.332,0.496,1.09,0.914,0.77,0.716,0.284,0.323,0.23,0.197,0.513,0.401,0.482,0.435
SW 900,1.02,0.93,0.632,–,0.565,0.862,0.731,0.866,0.629,0.617,0.554,0.417,0.191,0.527,–,0.554,0.299
NCI-H1648,0.783,0.906,0.39,–,0.318,0.873,1.06,1.06,1.05,–,–,–,–,0.475,0.422,0.445,0.432
SK-LU-1,1.06,0.963,0.933,0.534,0.678,1.09,1.05,1.1,0.944,0.648,0.509,0.393,0.308,0.818,0.778,0.823,0.735
NCI-H1563,1.01,0.929,0.668,0.626,0.533,0.925,0.975,0.885,0.764,0.663,0.692,0.56,0.501,–,–,–,–
Calu-6,1.05,1.04,1.01,0.907,0.792,1.02,1.06,1.01,0.962,–,–,–,–,–,–,–,–
NCI-H1299,1.06,1.05,1.06,0.773,0.991,1.02,1.02,1.04,1.01,–,–,–,–,–,–,–,–
EBC-1,0.943,1.14,0.868,0.409,0.272,0.986,1.01,0.819,0.29,–,–,–,–,–,–,–,–
